Assay results from patent US20240116889A1, “ANTIVIRAL COMPOUNDS AND METHODS” (priority 2019, published 2024).
Entries after “also recorded” stand apart in the source; their conditions may differ. Where two headings read alike, the source gives them in different places.

What was measured:
[1] = tested on: influenza A virus; conditions: MDCK cells; 0.001 μM TG over 48 h of infection; cited from earlier work
[2] = tested on: NPTr cells
[3] = tested on: human coronavirus OC43; format: cell-based; conditions: MRC-5 cells
[4] = tested on: RSV; conditions: human bronchial epithelial cell line; TG 0.1 uM for 24 h before infection; cited from earlier work
[5] = tested on: hCoV OC43; assay: hCoV OC43 replication in A549 cells (RT-qPCR); format: cell-based, human coronavirus OC43
[6] = tested on: USSR H1N1 virus; assay: USSR H1N1 M-gene RNA in media of NPTr cells primed with stored or oil-mixed TG (RT-qPCR); format: cell-based, influenza A virus (A/USSR/77); conditions: NPTr cells primed at 0.5 μM TG
[7] = tested on: RIG-I, OAS1 and PKR; format: cell-based, pig; conditions: NPTr cells (TG also NHBE cells and myoblasts); priming before or during infection
[8] = tested on: USSR H1N1 virus; format: cell-based, influenza A virus (A/USSR/77)
[9] = tested on: SARS-CoV-2; assay: SARS-CoV-2 replication in NHBE cells (RT-qPCR of media); format: cell-based
[10] = tested on: USSR H1N1 virus; format: cell-based, influenza A virus (A/USSR/77); remark: listed apart in the source
[11] = tested on: 2009 pandemic (pdm) H1N1 virus; assay: 2009 pandemic (pdm) H1N1 virus replication in Calu-3 cells (M-gene RNA, RT-qPCR); format: cell-based, influenza A virus
[12] = tested on: hCoV OC43; assay: hCoV OC43 production in NHBE cells (RT-qPCR); format: cell-based, human coronavirus OC43; conditions: 30 min pre-infection priming, 48 and 72 hpi
Procedure: Cells were primed with TG as indicated for 30 min, washed twice with PBS and infected with hCoV OC43 at 0.01 MOI (based on FFAs) for 3 h; after which cells were again washed twice with PBS and incubated in serum-free Promocell media (supplemented with 0.1 μg/ml TPCK trypsin). Culture media were harvested at 48 and 72 hpi for viral RNA extraction followed by one-step reverse transcription qPCR to detect the relative copy number of OC43 replicase polyprotein lab RNA. Indicated significance using Tukey's multiple comparisons test and percentage viral RNA reduction relative to corresponding DMSO control.

[13] = tested on: RSV (A2 strain, ATCC VR-1540); assay: RSV production from infected HEp2 cells (immuno-detection / RT-qPCR); format: cell-based, human respiratory syncytial virus
[14] = tested on: USSR H1N1 virus; format: cell-based, influenza A virus (A/USSR/77); remark: listed apart in the source
[15] = tested on: NHBE cells
[16] = tested on: extracellular Ca^2+ influx; assay: Intracellular Ca2+ monitoring assay (Fluo-8) in NPTr cells; format: cell-based, pig; conditions: non-toxic doses (CPA up to 5 μM; TG 10 min)
[17] = tested on: USSR H1N1 virus; assay: USSR H1N1 replication in A549 cells (M-gene RNA, RT-qPCR); format: cell-based, influenza A virus (A/USSR/77)
[18] = tested on: RSV; assay: RSV replication in A549 cells (pfu/ml by immunostaining); format: cell-based, human respiratory syncytial virus; conditions: 30 min TG priming, 72 h infection
Procedure: FIG. 37—Pre- and post-infection priming with TG 24 h inhibited RSV replication. […] (A) In pre-infection, cells primed with TG or control DMSO, washed with PBS, cultured in fresh media for 24 h and infected with RSV at 0.1 MOI for 2 h followed by media replacement with fresh DMEM containing 2% FCS. (B) In post-infection, cells were first infected similarly for 24 h, then primed with TG or DMSO for 30 min, washed with PBS and replaced with fresh media. In both treatment groups (A and B), cells were infected for a total period of 72 h, after which spun supernatants were used to determine progeny virus output (pfu/ml) on HEp2 cells by immunostaining with mouse anti-RSV (F27) antibody. HEp2 cells were more permissive to RSV replication than A549 cells. (C) Comparison of TG and ribavirin (Riba) in the inhibition of RSV replication. HEp-2 cells were primed with TG, Riba or control DMSO as indicated for 30 min, rinsed with PBS and infected with RSV. Riba was continuously present during infection. Four days post-infection, media were sampled for the detection of viral M-gene RNA by one-step reverse transcription-qPCR. Unless otherwise indicated, significance (based on one-way ANOVA with Tukey's multiple comparison test) is relative to DMSO control.

[19] = 30 min priming at doses used for infection studies
[20] = NPTr cells, 30 min priming, […]

C/C=C(/C)C(=O)O[C@H]1C(C)=C2[C@H]([C@@H]1OC(=O)CCCCCCC)[C@@](C)(OC(C)=O)C[C@H](OC(=O)CCC)[C@@]1(O)[C@H]2OC(=O)[C@@]1(C)O [TG, thapsigargin]
progeny influenza virus output [1]: increase progeny influenza virus output
cell viability after priming [2, 19]: no cytotoxic effect on cell viability
CC50 ([2]; 30 min priming, viability after 24 h): 56600 nM
cell viability of primed cells, infected or uninfected ([2]; primed once with 0.5 μM TG for 30 min, over 20 h): more viable than DMSO control cells
hCoV OC43 replication / progeny production ([3]; TG 0.05 or 0.5 μM 30 min pre-infection, HC pre-infection or continuous): dramatic dose-responsive reduction in coronavirus replication
cell loss and cytopathic effects of infected cells ([3]; TG-primed): limited cell loss and little morphological change
RSV replication by RT-PCR [4]: did not show reduction in virus replication
hCoV OC43, separate infection and co-infection with USSR H1N1 [5]: blocked
blocking of hCoV OC43 replication, comparison with RDV ([5]; A549 cells, TG 30 min priming vs continuous RDV, […]): superior to remdesivir (RDV)
antiviral function after mixing TG-DMSO stock with olive oil or sesame oil ([6]; 1:1 volume ratio, 24 h at room temperature): did not diminish TG antiviral function
antiviral activity after incubation of TG stock solution on its own ([6]; 24 h at RT, relative to freshly thawed TG): some reduction in antiviral activity
expression of type I IFN associated genes in response to infection [7]: consistently increased the expression of type I IFN associated genes
progeny virus output vs DMSO control [8]: marked reduction in virus output
virus production, TG before vs 6 h after infection ([8]; myoblasts, 0.5 μM TG 30 min, […]): comparable reduction in virus production
duration of the antiviral state after TG exposure ([8]; myoblasts, 1.0 μM TG for 1 h): at least 24 h
SARS-CoV-2 replication [9]: highly inhibitory
progeny virus output vs DMSO control [10]: marked reduction in virus output
progeny virus output ([10]; NHBE cells, 5 nM TG for 30 min): dramatic reduction in progeny virus output
virus production, TG before vs 6 h after infection ([10]; NHBE cells, 0.01 μM TG 30 min, […]): comparable reduction in virus production
Selectivity index (CC50/IC50) ([10]; NHBE cells, 30 min priming, […]): 8572.89
IC50 ([10]; NHBE cells, 30 min priming, […], read-out: USSR virus inhibitory concentration IC50): 3.91 nM
pdm 2009 H1N1, separate infection and co-infection with SARS-CoV-2 [11]: blocked
hCoV OC43 production [12]: reduced hCoV OC43 production in a dose-dependent manner
RSV replication, priming 24 h before or 24 h post-infection ([13]; HEp2 cells, 30 min TG priming, 72 h infection): strongly inhibited RSV replication
RSV production, TG priming 48 h post-infection ([13]; HEp2 cells, 30 min priming): rapidly effective in blocking virus production at 48 h post-infection
duration of sustained anti-viral effect on RSV ([13]; HEp2 cells, 30 min priming): over 48 h
Selectivity index ([13]; HEp-2 cells, 3 d infection period): 1346.499
IC50 ([13]; HEp-2 cells, RSV, 3 d infection period): 66.8 nM
RSV progeny virus production, viral M-gene RNA ([13]; HEp-2 cells, TG 30 min priming, Riba continuously present, four days post-infection): superior to the continuous presence of ribavirin; also recorded: significantly inhibited
progeny virus output vs DMSO control [14]: marked reduction in virus output
virus reduction ([14]; NPTr cells pre-primed with 0.1 μM TG for 30 min): 82%
virus reduction ([14]; NPTr cells pre-primed with 0.5 μM TG for 30 min): 93%
duration of the antiviral state after TG exposure ([14]; NPTr cells, 0.5 μM TG for 30 min): at least 24 h
IC50 [14, 20]: 7.12 nM
Selectivity index (CC50/IC50) [14, 20]: 7952.21
cell viability after priming [15, 19]: no cytotoxic effect on cell viability
cell viability on continuous exposure ([15]; continuous 5 nM TG for 24 h): no reduction in cell viability
CC50 ([15]; read-out: cellular cytotoxicity CC50, 30 min priming, viability after 24 h): 33500 nM
extracellular Ca^2+ influx [16]: modest Ca^2+ influx
USSR H1N1, separate infection and co-infection with hCoV OC43 [17]: blocked
blocking of USSR H1N1 replication, comparison with RDV ([17]; A549 cells, TG 30 min priming vs continuous RDV): superior to remdesivir (RDV)
RSV replication, priming 24 h before or 24 h post-infection [18]: strongly inhibited RSV replication
